Structures can show the parent of a compound that is named as a salt. Where two headings read alike, the source gives them in different places.
Assays:
[1] = system: phospho-ERK in HCT-116 cells; test: HCT-116 cell pERK assay (AlphaScreen SureFire); format: cell-based; settings: for IC50: Homo sapiens, HCT-116 cells, B-Raf wild type, K-Ras mutation, 4 hours, read-out: IC50 reduction of phospho-ERK signal
Experimental: Examples of Formula I are tested against HCT-116 cells harboring wild type B-Raf and K-Ras mutation. The phospho-ERK activities are evaluated as described below.
HCT-116 cells (catalog #CCL-247) are obtained from the American Type Culture Collection (ATCC, Manassas, Va.). Briefly, cells are grown in McCoy's 5A supplemented with 10% characterized fetal bovine serum (Invitrogen, Carlsbad, Calif.), and 1% Penicillin/Streptomycin/L-Glutamine at 37 degrees Celsius, 5% CO2, and 95% humidity. Cells are allowed to expand until reaching 75-90% confluency at which point they are subcultured or harvested for assay use. HCT-116 cells suspended in complete media are added to 384-well tissue culture treated plates (3×10^5 cells/mL; 7,500 cells per well). The cells are incubated overnight at 37 degrees Celsius, 5% CO2, and 95% humidity. Next, test compound or DMSO diluted in complete media is added to the wells (0.25% final DMSO concentration). The plates are then incubated for 4 hours at 37 degrees Celsius, 5% CO2, and 95% humidity. Following compound incubation, the cells are lysed at 4° C. for 20 minutes with shaking Cell lysates are centrifuged and the supernatant is transferred to a new plate. An aliquot of each lysate is transferred to a white 384-well assay plate. Using the AlphaScreen SureFire pERK kit (Perkin-Elmer, Waltham, Mass.), an acceptor bead mixture is added to each well and incubated for 2 h at room temperature in the dark. A donor bead mixture is then added to each well and incubated for 2 h at room temperature in the dark. Plates are read using a Synergy2 plate reader (Biotek, Winooski, Vt.) in Plate Mode with Timing Control. Read: (F)1: excitation: 680/30 nm, emission: Plug. 2: Excitation: Plug, emission: 570/100 nm. Top mirror 635 nm. Data is analyzed using Prism software (Graphpad, San Diego, Calif.) to calculate IC50 values and Excel software (Microsoft, Redmond, Wash.) to calculate stimulation compared to control.

[2] = system: phospho-ERK in A375 (B-Raf V600E) xenograft; test: A375 mouse xenograft pharmacodynamic assay (tumor pERK by ELISA); format: in vivo, mice; settings: A-375, 20 mg/kg oral, 2 h post dose, vs vehicle, read-out: Measured pERK inhibition 2 h post dose
Experimental: To evaluate the in vivo pharmacodynamic (PD) effects of compounds of Formula I, an A375 (B-Raf V600E) xenograft model is employed. Briefly, 10×10^6 A375 tumor cells (ATCC) are prepared in a 1:1 matrigel mix (0.2 mL total volume) and implanted by subcutaneous injection in hind leg of nude female mice. A total of 4 mice each for each dosing group are employed. Treatment is initiated with oral administration (gavage) of test compound or vehicle (20% captisol, 25 mM phosphate, pH2.0) in 0.2 mL volume when average tumor size reaches approximately 300 mg. After a fixed time interval, the tumors are harvested and the phospho-ERK levels are measured by ELISA (Enzyme-linked immunosorbent assay). Treated groups are compared to the vehicle control group to calculate % inhibition.

A375res cells [3] = system: A375res cells
Source text: (§6) A vemurafenib-resistant cell line is generated by chronic treatment of the human melanoma cell line A375 (ATCC) harboring the B-Raf V600E mutation with increasing concentrations PLX4720.

A375res cells [4] = test: Proliferation assay in vemurafenib-resistant A375res melanoma cells; settings: for IC50: Homo sapiens, 72 h
Source text: as §6

A-Raf = A-Raf (Homo sapiens (Human), UniProt P10398); test: ActivX KiNativ A375 whole cell lysate assay; format: binding
Experimental: (§1) To further evaluate the enzymatic pan Raf activities of test compounds, they are evaluated in a KiNativ assay developed and carried out by ActivX Biosciences Inc. using whole cell lysates of A375 cells. A375 cells are human melanoma cells with a B-Raf V600E mutation.
(§2) Sample preparation: A375 cells from ATCC are lysed by sonication in commercially available lysis buffer, cleared by centrifugation, and the resulting supernatant gel filtered into a commercially available kinase reaction buffer containing 20 mM MnCl2. Final protein concentration of lysates are 10 mg/mL. 5 μL of each test compound is added from 100 μM, 10 μM, 1 μM, or 0.1 μM stock solutions in DMSO to 500 uL of lysate in duplicate for final concentrations of 1 μM, 0.1 μM, 0.01 μM, and 0.001 μM. 5 μL of DMSO is added to 500 μL of lysate in quadruplicate for controls. After 15 minute incubation, desthiobiotin-ATP acylphosphate probe is added to each sample to a final concentration of 5 μM and incubated with the samples for 10 minutes. Following the probe reaction, samples are prepared for targeted mass spectrum analysis using ActivX standard protocol. Briefly, samples are prepared for trypsin digestion (denature, reduce alkylate), digested with trypsin, and desthio-biotinylated peptides are enriched on streptavidin resin.
(§3) Data collection: Enriched peptide samples are analyzed by LC-MS/MS on a Thermo-LTQ Velos ion trap mass spectrometer using ActivX data collection methodology for A375 cells.
(§4) Data analysis: All quantitation is performed by extracting characteristic fragment ion signals from targeted MS/MS spectra and comparing signals in control and treated samples. ActivX software is used with manual validation/visual inspection performed as needed based on data flagging/filtering measures. All inhibition data points are visually verified, as are all data points showing variability outside of normal limits.

B-Raf (V600E) = B-Raf (V600E) (Homo sapiens (Human), UniProt P15056, V600E); test: ActivX KiNativ A375 whole cell lysate assay; format: binding
Experimental: as §1, §2, §3, §4

C-Raf = C-Raf (Homo sapiens (Human), UniProt P04049); test: ActivX KiNativ A375 whole cell lysate assay; format: binding
Experimental: as §1, §2, §3, §4

[5] = system: A-Raf, B-RafV600E and C-Raf; test: ActivX KiNativ A375 whole cell lysate assay, summary over Raf isoforms; format: binding, human; settings: A375 cells; summary of Table 1
Experimental: as §1
as §2, with “Following the probe reaction, samples are prepared for targeted mass spectrum analysis using ActivX standard protocol. Briefly, samples are prepared for trypsin digestion (denature, reduce alkylate), digested with trypsin, and desthio-biotinylated peptides are enriched on streptavidin resin.” left out
as §3
Data analysis: All quantitation is performed by extracting characteristic fragment ion signals from targeted MS/MS spectra and comparing signals in control and treated samples. […]

A375 xenograft tumor = test: A375 mouse xenograft efficacy model; format: in vivo, mice; settings: oral, 21 days
Experimental: (§5) To further evaluate in vivo activity of compounds of Formula I, an A375 xenograft tumor model is utilized. Briefly, 10×10^6 cells in a 1:1 matrigel mix (0.2 mL total volume) are implanted by subcutaneous injection in the hind leg of nude female mice. A total of 8-10 mice in each group are used. Treatment is initiated with oral administration (gavage) of a test compound or vehicle (20% captisol, 25 mM phosphate, pH2.0) in 0.2 mL volume when tumor size reaches approximately 300-500 mg. Test compound is orally dosed twice or thrice a day for 21 days. Tumor growth and body weight are monitored over time to evaluate efficacy and signs of toxicity. Bidimensional measurements of tumors are performed twice a week and tumor volumes are calculated based on the following formula: (Tumor Volume)=[(L)×(W^2)×(π/6)] where L is mid-axis length and W is mid-axis width. Tumor volume data are transformed to a log scale to equalize variance across time and treatment groups. The log volume data are analyzed with a two-way repeated measures analysis of variance by time and treatment using the MIXED procedures in SAS software (version 8.2). The correlation model for the repeated measures is spatial power. Treated groups are compared to the control group at each time point. The MIXED procedure is also used separately for each treatment group to calculate adjusted means and standard errors at each time point. Both analyses account for the autocorrelation within each animal and the loss of data that occurs when animals with large tumors are removed from the study early. The adjusted means and standard errors are plotted for each treatment group versus time.

[6] = Body weight in A375 mouse xenograft efficacy model; format: in vivo, mice; settings: oral, 21 days
Experimental: as §5

A375 cells = test: A375 cell proliferation assay (72 hour); format: cell-based; settings: Homo sapiens, A-375, parental A375 cells
Experimental: A375 cells (catalog #CRL-1619) are obtained from the American Type Culture Collection (ATCC, Manassas, Va.). Briefly, cells are grown in DMEM High Glucose supplemented with 10% characterized fetal bovine serum (Invitrogen, Carlsbad, Calif.) and 1% Penicillin/Streptomycin/L-Glutamine at 37 degrees Celsius, 5% CO2, and 95% humidity. Cells are allowed to expand until reaching 70-95% confluency at which point they are subcultured or harvested for assay use. A serial dilution of test compound is dispensed into a 384-well black clear bottom plate in triplicate. Six hundred twenty-five cells are added per well in 50 μL complete growth medium in the 384-well plate. Plates are incubated for 67 hours at 37 degrees Celsius, 5% CO2, and 95% humidity. […] Plates are read on a Synergy2 reader (Biotek, Winooski, Vt.) using an excitation of 540 nm and an emission of 600 nm. Data is analyzed using Prism software (Graphpad, San Diego, Calif.) to calculate IC50 values.

Sequence of B-Raf (V600E) (P15056 whole entry V600E): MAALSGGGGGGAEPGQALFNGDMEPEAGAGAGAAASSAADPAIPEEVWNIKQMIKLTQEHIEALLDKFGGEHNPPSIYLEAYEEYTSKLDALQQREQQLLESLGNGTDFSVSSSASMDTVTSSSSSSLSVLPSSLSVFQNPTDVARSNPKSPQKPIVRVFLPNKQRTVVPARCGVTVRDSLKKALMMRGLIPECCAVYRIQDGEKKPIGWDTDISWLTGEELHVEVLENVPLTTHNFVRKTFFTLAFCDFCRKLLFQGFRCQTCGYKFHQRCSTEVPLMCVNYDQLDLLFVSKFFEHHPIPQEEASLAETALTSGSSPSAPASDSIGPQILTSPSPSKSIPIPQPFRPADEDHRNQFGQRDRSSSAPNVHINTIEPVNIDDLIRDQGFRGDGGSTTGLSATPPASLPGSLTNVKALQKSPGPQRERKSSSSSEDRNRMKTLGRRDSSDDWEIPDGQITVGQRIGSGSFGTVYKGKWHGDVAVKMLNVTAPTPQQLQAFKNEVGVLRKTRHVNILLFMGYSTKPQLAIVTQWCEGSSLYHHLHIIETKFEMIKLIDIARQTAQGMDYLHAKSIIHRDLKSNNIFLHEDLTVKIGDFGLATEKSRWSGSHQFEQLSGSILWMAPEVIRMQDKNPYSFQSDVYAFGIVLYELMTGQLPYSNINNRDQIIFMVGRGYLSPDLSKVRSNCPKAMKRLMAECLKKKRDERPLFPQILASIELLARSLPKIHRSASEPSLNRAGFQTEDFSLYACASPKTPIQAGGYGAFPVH
Sequence of A-Raf (P10398 whole entry): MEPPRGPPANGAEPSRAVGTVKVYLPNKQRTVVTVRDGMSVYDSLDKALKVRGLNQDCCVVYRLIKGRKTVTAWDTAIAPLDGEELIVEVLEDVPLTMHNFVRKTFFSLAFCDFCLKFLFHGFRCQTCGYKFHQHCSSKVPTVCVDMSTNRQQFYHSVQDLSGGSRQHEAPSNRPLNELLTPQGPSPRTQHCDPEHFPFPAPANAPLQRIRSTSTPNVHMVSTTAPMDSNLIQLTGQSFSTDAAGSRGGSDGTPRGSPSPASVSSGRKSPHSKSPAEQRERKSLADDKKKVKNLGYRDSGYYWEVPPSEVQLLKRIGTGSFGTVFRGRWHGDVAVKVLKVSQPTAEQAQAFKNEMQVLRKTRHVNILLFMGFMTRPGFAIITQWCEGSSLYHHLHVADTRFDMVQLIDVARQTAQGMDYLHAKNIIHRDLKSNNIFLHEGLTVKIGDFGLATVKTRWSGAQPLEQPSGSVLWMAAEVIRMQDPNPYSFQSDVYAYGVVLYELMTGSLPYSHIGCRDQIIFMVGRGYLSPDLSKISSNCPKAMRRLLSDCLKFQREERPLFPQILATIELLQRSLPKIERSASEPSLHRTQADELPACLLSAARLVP
Sequence of C-Raf (P04049 whole entry): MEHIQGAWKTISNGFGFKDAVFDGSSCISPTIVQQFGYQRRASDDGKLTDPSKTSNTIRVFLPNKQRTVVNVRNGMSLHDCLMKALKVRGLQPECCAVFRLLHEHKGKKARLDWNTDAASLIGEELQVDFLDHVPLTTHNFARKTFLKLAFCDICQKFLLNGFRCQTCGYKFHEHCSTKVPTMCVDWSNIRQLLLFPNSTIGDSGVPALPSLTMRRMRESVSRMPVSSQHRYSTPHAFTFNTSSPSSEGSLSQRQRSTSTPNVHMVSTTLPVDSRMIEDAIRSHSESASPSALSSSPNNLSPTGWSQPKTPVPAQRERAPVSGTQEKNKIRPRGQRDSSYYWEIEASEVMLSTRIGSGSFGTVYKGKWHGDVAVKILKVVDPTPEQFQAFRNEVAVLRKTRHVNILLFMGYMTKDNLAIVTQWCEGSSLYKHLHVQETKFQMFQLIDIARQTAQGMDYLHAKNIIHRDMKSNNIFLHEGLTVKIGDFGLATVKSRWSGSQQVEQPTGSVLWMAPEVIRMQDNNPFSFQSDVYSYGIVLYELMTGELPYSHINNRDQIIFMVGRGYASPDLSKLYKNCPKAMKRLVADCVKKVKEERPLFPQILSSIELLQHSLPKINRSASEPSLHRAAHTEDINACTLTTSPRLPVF

SMILES | IC50 [1] | inhibition in vivo at 20 mg/kg [2] | IC50 shift A375 to A375res (A375res cells [3]) | IC50 (A375res cells [4]; read-out: absolute IC50 values) | also measured
CNc1cc2nc(C)c(-c3cc(NC(=O)NCCC(C)(C)C#N)c(F)cc3C)cc2cn1 [Example 9, 1-(3-cyano-3-methylbutyl)-3-(2-fluoro-4-methyl-5-(2-methyl-7-(methylamino)-1,6-naphthyridin-3-yl)phenyl)urea] | 2 to 96 nM | 78% | 0.5-4.9 fold | 9 to 504 nM | 
CNc1cc2nc(C)c(-c3cc(NC(=O)NC4CCC(F)(F)CC4)c(F)cc3C)cc2cn1 [Example 12, 1-(4,4-difluorocyclohexyl)-3-(2-fluoro-4-methyl-5-(2-methyl-7-(methylamino)-1,6-naphthyridin-3-yl)phenyl)urea hydrochloride] | 2 to 96 nM | 58% | 0.5-4.9 fold | 9 to 504 nM | 
Cc1nc2cc(NCCO)ncc2cc1-c1cc(NC(=O)NCCC(C)(C)C)c(F)cc1F [Example 47, 1-(2,4-difluoro-5-(7-(2-hydroxyethylamino)-2-methyl-1,6-naphthyridin-3-yl)phenyl)-3-(3,3-dimethylbutyl)urea] | 2 to 96 nM | 50% | 0.5-4.9 fold | 9 to 504 nM | 
CNc1cc2nc(C)c(-c3cc(NC(=O)NC[C@H](O)C(C)(C)C)c(F)cc3C)cc2cn1 [Example 57, (R)-1-(2-fluoro-4-methyl-5-(2-methyl-7-(methylamino)-1,6-naphthyridin-3-yl)phenyl)-3-(2-hydroxy-3,3-dimethylbutyl)urea] | 2 to 96 nM | 96% | 0.5-4.9 fold | 9 to 504 nM | 
CNc1cc2nc(C)c(-c3cc(NC(=O)NCCC(C)(C)F)c(F)cc3C)cc2cn1 [Example 76, 1-(3-fluoro-3-methylbutyl)-3-(2-fluoro-4-methyl-5-(2-methyl-7-(methylamino)-1,6-naphthyridin-3-yl)phenyl)urea] | 2 to 96 nM |  | 0.5-4.9 fold | 9 to 504 nM | IC50 (A-Raf): 120 nM; IC50 (B-Raf (V600E); first B-Raf (V600E) column): 16 nM; IC50 (B-Raf (V600E); second B-Raf (V600E) column): 22 nM; IC50 (C-Raf): 170 nM; IC50 [5]: < 170 nM; tumor growth (A375 xenograft tumor; twice a day at 10 or 30 mg/kg): tumor growth inhibition and tumor growth regression; animal body weight loss ([6]; twice a day at 10 or 30 mg/kg): minimal animal body weight loss
CNc1cc2nc(C)c(-c3cc(NC(=O)N[C@H]4C[C@](C)(F)C4)c(F)cc3C)cc2cn1 [Example 77, 1-(3-fluoro-cis(3-methylcyclobutyl))-3-(2-fluoro-4-methyl-5-(2-methyl-7-(methylamino)-1,6-naphthyridin-3-yl)phenyl)urea] | 2 to 96 nM | 96% | 0.5-4.9 fold | 9 to 504 nM | 
Cc1cc(F)c(NC(=O)NCCC(C)(C)F)cc1-c1cc2cnc(N)cc2nc1C [Example 79, 1-(5-(7-amino-2-methyl-1,6-naphthyridin-3-yl)-2-fluoro-4-methylphenyl)-3-(3-fluoro-3-methylbutyl)urea] | 2 to 96 nM | 87% | 0.5-4.9 fold | 9 to 504 nM | tumor growth (A375 xenograft tumor; twice a day at 15 or 30 mg/kg): tumor growth inhibition; animal body weight loss ([6]; twice a day at 15 or 30 mg/kg): minimal animal body weight loss
CNc1cc2nc(C)c(-c3cc(NC(=O)NCCC(C)(C)C(F)(F)F)c(F)cc3C)cc2cn1 [Example 89, 1-(2-fluoro-4-methyl-5-(2-methyl-7-(methylamino)-1,6-naphthyridin-3-yl)phenyl)-3-(4,4,4-trifluoro-3,3-dimethylbutyl)urea hydrochloride] | 2 to 96 nM | 84% | 0.5-4.9 fold | 9 to 504 nM | 
CNc1cc2nc(C)c(-c3cc(NC(=O)NCCC(C)(C)OC)c(F)cc3C)cc2cn1 [Example 92, 1-(2-fluoro-4-methyl-5-(2-methyl-7-(methylamino)-1,6-naphthyridin-3-yl)phenyl)-3-(3-methoxy-3-methylbutyl)urea hydrochloride] | 2 to 96 nM | 77% | 0.5-4.9 fold | 9 to 504 nM | 
CCCS(=O)(=O)Nc1ccc(F)c(C(=O)c2c[nH]c3ncc(Cl)cc23)c1F [PLX4720, N-[3-(5-chloro-1H-pyrrolo[2,3-b]pyridine-3-carbonyl)-2,4-difluorophenyl]propane-1-sulfonamide, reference compound] |  |  |  |  | IC50 (A375 cells): 369 nM; IC50 shift A375 to A375res (A375res cells [4]; 72 hour proliferation assay): more than 27 fold; IC50 (A375res cells [4]; read-out: IC50 proliferation): > 10000 nM
CCCS(=O)(=O)Nc1ccc(F)c(C(=O)c2c[nH]c3ncc(-c4ccc(Cl)cc4)cc23)c1F [vemurafenib, reference compound] |  |  | more than 57 fold |  | IC50 (A375 cells): 175 nM; effect on pERK signal ([1]; at concentrations up to about 3 uM): stimulates the pERK signal; IC50 (A375res cells [4]; read-out: IC50 proliferation): > 10000 nM
